Data from patent publication US20200131159A1, “POSITIVE ALLOSTERIC MODULATORS OF THE MUSCARINIC ACETYLCHOLINE RECEPTOR M1” (Vanderbilt University, priority 2018, published 2020).
pEC50: −log10 of the molar value.

Molecular target: T1, human mAChR M1 (Homo sapiens, UniProt P11229)
T1 construct: hM1 and hM4 cDNAs were purchased from Missouri S&T cDNA Resource; host or cells: CHO-K1 cells, stably transfected with Lipofectamine2000
T1 sequence (P11229 1-460): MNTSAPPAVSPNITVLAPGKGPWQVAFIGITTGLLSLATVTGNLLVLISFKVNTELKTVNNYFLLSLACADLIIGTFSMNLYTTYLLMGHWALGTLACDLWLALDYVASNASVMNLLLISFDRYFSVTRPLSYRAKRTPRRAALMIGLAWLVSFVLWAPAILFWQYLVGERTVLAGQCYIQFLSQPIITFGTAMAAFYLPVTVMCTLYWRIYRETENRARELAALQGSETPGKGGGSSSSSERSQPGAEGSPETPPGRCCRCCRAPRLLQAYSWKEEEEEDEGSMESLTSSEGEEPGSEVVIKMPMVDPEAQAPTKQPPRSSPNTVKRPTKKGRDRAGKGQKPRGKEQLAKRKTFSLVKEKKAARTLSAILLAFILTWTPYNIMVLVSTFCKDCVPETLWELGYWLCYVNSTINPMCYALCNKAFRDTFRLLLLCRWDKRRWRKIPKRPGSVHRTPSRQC
Test: mAChR M1 cell-based functional assay (calcium mobilization, PAM mode, EC20 acetylcholine)
Conditions: CHO-K1 cells expressing hM1, calcium flux (Fluo-4); for Emax: EC20 acetylcholine response; for pEC50: concentration-dependent increase in the EC20 acetylcholine response
Excerpt: Chinese hamster ovary (CHO-K1) cells stably expressing rat (r)M1 were purchased from the American Type Culture Collection and cultured according to their indicated protocol. CHO cells stably expressing human (h)M2, hM3, and hM5 were described previously (Levey, et al., 1991); hM1 and hM4 cDNAs were purchased from Missouri S&T cDNA Resource; rM4 cDNA was provided by T. I. Bonner (National Institutes of Health, Bethesda, Md.). rM2 and rM3 were cloned from a rat brain cDNA library and sequence verified. hM1, rM2, rM3, hM4, and rM4 cDNAs were used to stably transfect CHO-K1 cells purchased from the American Type Culture Collection using Lipofectamine2000. To make stable rM2, hM2, rM3, hM4, and rM4 cell lines for use in calcium mobilization assays, these cells also were stably transfected with a chimeric G-protein (Gqi5) (provided by B. R. Conklin, University of California, San Francisco) using Lipofectamine 2000. rM1, hM1, rM3, hM3, rM5, and hM5 cells were grown in Ham's F-12 medium containing 10% heat-inactivated fetal bovine serum (FBS), 20 mM HEPES, and 50 µg/mL G418 sulfate. rM2-Gqi5, hM2-Gqi5, and hM4-Gqi5 cells were grown in the same medium also containing 500 μg/mL Hygromycin B. Stable rM4-Gqi5 cells were grown in DMEM containing 10% heat-inactivated FBS, 20 mM HEPES, 400 μg/mL G418 sulfate, and 500 μg/mL Hygromycin B.
For high throughput measurement of agonist-evoked increases in intracellular calcium, CHO-K1 cells stably expressing muscarinic receptors were plated in growth medium lacking G418 and hygromycin at 15,000 cells/20 μL/well in Greiner 384-well black-walled, tissue culture (TC)-treated, clear-bottom plates (VWR). Cells were incubated overnight at 37° C. and 5% CO2. The next day, cells were washed using an ELX 405 (BioTek) with four washes (80 μL) of assay buffer then aspirated to 20 μL. Next, 20 μL of 16 μM Fluo-4/acetoxymethyl ester (Invitrogen, Carlsbad, Calif.) prepared as a 2.3 mM stock in DMSO and mixed in a 1:1 ratio with 10% (w/v) Pluronic F-127 and diluted in assay buffer was added to the wells and the cell plates were incubated for 50 min at 37° C. and 5% CO2. Dye was removed by washing with the ELX 405 (four 80 μL washes of assay buffer) then aspirated to 20 μL. Compound master plates were formatted in an 11 point CRC format (1:3 dilutions) in 100% DMSO with a starting concentration of 10 mM using the BRAVO liquid handler (Agilent). Test compound CRCs were then transferred to daughter plates (240 nL) using the Echo acoustic plate reformatter (Labcyte, Sunnyvale, Calif.) and then diluted into assay buffer (40 μL) to a 2× stock using a Thermo Fisher Combi (Thermo Fisher Scientific, Waltham, Mass.).
Calcium flux was measured using the Functional Drug Screening System (FDSS) 6000 (Hamamatsu Corporation, Tokyo, Japan) as an increase in the fluorescent static ratio. Compounds were applied to cells (20 μL, 2×) using the automated system of the FDSS 6000 at 4 s into the 300 s protocol and the data were collected at 1 Hz. […] Agonist activity was analyzed as a concentration-dependent increase in calcium mobilization upon compound addition. Emax values for agonist activity are expressed relative to the maximum for acetylcholine. Positive allosteric modulator activity was analyzed as a concentration-dependent increase in the EC20 acetylcholine response. Antagonist activity was analyzed as a concentration-dependent decrease in the […] acetylcholine response. Concentration-response curves were generated using a four-parameter logistical equation in XLfit curve fitting software (IDBS, Bridgewater, N.J.) for Excel (Microsoft, Redmond, Wash.) or Prism (GraphPad Software, Inc., San Diego, Calif.).
Activity (EC50 and Emax) was determined in the mAChR M1 cell-based functional assay as described above and the data are shown in Table 2. The compound numbers correspond to the compound numbers used in Table 1.

Emax [%] | pEC50 | SMILES
38 | 5.86 | Cc1nc(-c2ccc(Cc3cc(C(=O)NC4CCOCC4)c4ncccc4c3C)cc2)co1 [compound 35, 5-methyl-6-[[4-(2-methyloxazol-4-yl)phenyl]methyl]-N-tetrahydropyran-4-yl-quinoline-8-carboxamide]
61 | 5.66 | Cc1nc(-c2ccc(Cc3cc(C(=O)N[C@H]4CCC[C@@H]4O)c4ncccc4c3)cc2)co1 [compound 19, N-[(1S,2S)-2-hydroxycyclopentyl]-6-[[4-(2-methyloxazol-4-yl)phenyl]methyl]quinoline-8-carboxamide]
73 | 5.77 | Cc1c(Cc2ccc(-n3cccn3)cc2)cc(C(=O)N[C@H]2CC[C@@H]2O)c2ncccc12 [compound 27, N-[(1S,2S)-2-hydroxycyclobutyl]-5-methyl-6-[(4-pyrazol-1-ylphenyl)methyl]quinoline-8-carboxamide]
49 | 5.09 | O=C(NCC1CCOCC1)c1cc(Cc2ccc(-n3cccn3)cc2)cc2cccnc12 [compound 8, 6-[(4-pyrazol-1-ylphenyl)methyl]-N-(tetrahydropyran-4-ylmethyl)quinoline-8-carboxamide]
67 | 5.22 | O=C(NC1CC2(COC2)C1)c1cc(Cc2ccc(-n3cccn3)cc2)cc2cccnc12 [compound 4, N-(2-oxaspiro[3.3]heptan-6-yl)-6-[(4-pyrazol-1-ylphenyl)methyl]quinoline-8-carboxamide]
42 | 5.24 | Cn1cc2c(-c3cc(F)c(Cc4cc(C(=O)N[C@H]5CCCC[C@@H]5O)c5ncccc5c4)c(F)c3)cccc2n1 [compound 22, 6-[[2,6-difluoro-4-(2-methylindazol-4-yl)phenyl]methyl]-N-[(1S,2S)-2-hydroxycyclohexyl]quinoline-8-carboxamide]
75 | 5.69 | Cc1nc(-c2ccc(Cc3cc(C(=O)N[C@H]4CCCCC[C@@H]4O)c4ncccc4c3C)cc2)co1 [compound 33, N-[(1S,2S)-2-hydroxycycloheptyl]-5-methyl-6-[[4-(2-methyloxazol-4-yl)phenyl]methyl]quinoline-8-carboxamide]
66 |  | Cc1c(Cc2ccc(-n3cccn3)cc2)cc(C(=O)N[C@H]2CCCCC[C@@H]2O)c2ncccc12 [compound 24, N-[(1S,2S)-2-hydroxycycloheptyl]-5-methyl-6-[(4-pyrazol-1-ylphenyl)methyl]quinoline-8-carboxamide]
81 | 6.00 | O=C(N[C@H]1CCCC[C@@H]1O)c1cc(Cc2ccc(-n3cccn3)cc2)cc2cccnc12 [compound 2, N-[(1S,2S)-2-hydroxycyclohexyl]-6-[(4-pyrazol-1-ylphenyl)methyl]quinoline-8-carboxamide]
65 | 5.74 | Cc1nc(-c2ccc(Cc3cc(C(=O)N[C@H]4CCCCC[C@@H]4O)c4ncccc4c3)cc2)co1 [compound 17, N-[(1S,2S)-2-hydroxycycloheptyl]-6-[[4-(2-methyloxazol-4-yl)phenyl]methyl]quinoline-8-carboxamide]
79 | 6.51 | Cn1ccc(-c2ccc(Cc3cc(C(=O)N[C@H]4CCOC[C@@H]4O)c4ncccc4c3)cn2)n1 [compound 9, N-[(3R,4S)-3-hydroxytetrahydropyran-4-yl]-6-[[6-(1-methylpyrazol-3-yl)-3-pyridyl]methyl]quinoline-8-carboxamide]
74 | 6.25 | Cc1nc(-c2ccc(Cc3cc(C(=O)N[C@H]4CCCC[C@@H]4O)c4ncccc4c3C)cc2)co1 [compound 34, N-[(1S,2S)-2-hydroxycyclohexyl]-5-methyl-6-[[4-(2-methyloxazol-4-yl)phenyl]methyl]quinoline-8-carboxamide]
75 |  | Cn1ccc(-c2ccc(Cc3cc(C(=O)N[C@H]4CC[C@@H]4O)c4ncccc4c3)cn2)n1 [compound 13, N-[(1S,2S)-2-hydroxycyclobutyl]-6-[[6-(1-methylpyrazol-3-yl)-3-pyridyl]methyl]quinoline-8-carboxamide]
66 |  | Cn1ccc(-c2ccc(Cc3cc(C(=O)NC4CCOCC4)c4ncccc4c3)cn2)n1 [compound 15, 6-[[6-(1-methylpyrazol-3-yl)-3-pyridyl]methyl]-N-tetrahydropyran-4-yl-quinoline-8-carboxamide]
